{"source": "patent US8338177B2", "about": "“Cell culture medium” (Lonza Biologics PLC, priority 2002, dated 2012)", "key": {"[1]": {"tested_on": "cultured human endothelial cells", "conditions": "acetate at 5 mM; cited from earlier work"}, "[2]": {"tested_on": "GS-NS0 cell line 6A1(100)3", "assay": "GS-NS0 6A1 fed-batch culture (shake flask / airlift bioreactor): growth and antibody productivity by protein A-HPLC", "conditions": "for single cell productivity (qp): fed-batch shake flask", "procedure": "(§1) Where not specified, antibody productivity or titer was determined by protein A-HPLC.\nThe GS-NS0 cell line 6A1(100)3, 6A1 for short, secreting recombinant mouse/human chimeric IgG cB72.3 (Bebbington, 1992, supra) was used in all experimental settings under this section. Cell culture was either carried out in shake flask culture or in a fed-batch mode in a 101 standard airlift bioreactor, essentially as described (Bebbington, 1992). Feeds essentially comprised amino acids and carbohydrate as described above for high-density media and fermentation, respectively. Feed volume was at 4% of post-inocculation volume. Feed was initiated at a rate of 0.2 ml/Lh when viable cell density exceeded 14×10^5 cells/ml. Temperature was controlled at 36.5 degree centigrade; for airlift, air saturation was at 15%. pH was controlled at pH 7.00. Culture was inoculated at 2×10^5 viable cells/ml. Medium is serum- and essentially protein-free growth medium ProCH04-CDM (BioWhittaker) supplemented with […] methionine sulfoximine (MSX). Cells were pre-adapted to medium. […] Positively, it did prolong stationary phase upon fermentation.\nCumulative cell time (10^6 cell/h ml) was calculated by integration of the cell growth curve, essentially as described by Renard et al. (1988, Biotechnology Letters 10, 91-96).\nEither sodium acetate or potassium acetate were added to shake flask culture during mid-exponential growth phase to the final concentrations stated in the respective sections of the table of FIG. 1. Cultures were counted daily by Trypan blue method and samples were taken for product analysis by means of protein A fractionation and HPLC analysis.\nDuplicate cultures both for control and 10 mM sodium acetate supplemented culture were tested for viable cell concentration (determined by Trypan blue exclusion standard counting test). Feed was started at day 4. The acetate was not fed during growth phase as in FIG. 1 but was included in cell culture production medium right away to which the inocculum cells were added. […] The CCT remained essentially similar for all cultures.\nExp. 2 was conducted essentially as described above for exp. 1/FIG. 2, except that now 7.5 mM sodium acetate and a proprietary high-density culture medium was used, similar to the lipid supplemented high-density media described in EP435 911 A but distinct in employing less ethanolamine and no thioglycerole and keeping Tryptophan concentration constant at 19 mM by sensor-controlled automatic feeding. […] In contrast to exp. 1, the same maximum viable cell density could be achieved in the presence of actetate as compared to the control without acetate in the absence of any adverse effect on duration of stationary phase growth. Similarly, product concentration increased steadily over control and over time (FIG. 6).\nIn the permissible range, no increase in productivity could be seen at all, not even at the single cell level. The experiment was conducted essentially as described in exp. 1/FIG. 2, except that butyrate was added in the amounts shown instead of acetate. […] FIG. 9-11 show the effect of butyrate addition on CCT, antibody titer at harvest and single cell specific productivity (qp)."}, "[3]": {"tested_on": "hybridoma cell line VPM 8", "assay": "VPM 8 hybridoma culture: CCT, harvest antibody titer, specific productivity", "procedure": "as §1\nA dose response study for addition of sodium acetate was carried out for hybridoma cell line VPM 8 (ECACC No. 93113024, European Collection of cell cultures, supra) essentially as described in exp. 3, except that VPM 8 was grown in commercial, protein-free medium CD-Hybridoma (Invitrogen/U.K.) and in that no MSX was added, since not being a GS cell line. VPM 8 is a mouse hybridoma that was generated by conventional means of cell fusion with non-secreting myeloma cells and secretes a murine IgG1 antibody.\nThe experiment has been carried out essentially as described in exp. 5, except that acetate was substituted with n-butyrate in the amounts stated in the figures."}, "CHO cell culture": {"tested_on": "CHO cell culture", "conditions": "added to medium with 1 mM sodium butyrate; lithium salts 10 mM, LPS 1 μg/ml, sodium acetate 10 mM; cited from earlier work"}, "[4]": {"conditions": "7.5 mM, high-density medium, Experiment 2"}, "[5]": {"conditions": "added during mid-exponential growth phase"}, "[6]": {"conditions": "CD-Hybridoma protein-free medium, Experiment 5"}}}
{"compound": "CCC(=O)O", "note": "[proprionate]", "values": [{"measurement": "expression-enhancing effect on tPA production", "setting": "[1]", "result": "found to have such effect"}]}
{"compound": "CCCC(=O)[O-].[Na+]", "note": "[Butyrate, sodium n-butyrate, reference compound]", "values": [{"measurement": "dose strongly toxic to the cells (rapid decrease of viable cell density)", "setting": "[2]; Experiment 4", "result": "> 1", "unit": "mM"}, {"measurement": "antibody productivity", "setting": "[2]; butyrate added instead of acetate, Experiment 4", "result": "does not increase antibody productivity"}, {"measurement": "antibody titer", "setting": "[3]; Experiment 6", "result": "not effective in increasing antibody titer"}, {"measurement": "toxicity for the cell line", "setting": "[3]; Experiment 6", "result": "exceptional toxicity"}, {"measurement": "expression-enhancing effect on tPA production", "setting": "[1]", "result": "outstanding effect"}]}
{"compound": "CC(=O)[O-].[Na+]", "note": "[sodium acetate]", "values": [{"measurement": "cell growth parameters (cell growth rate and cumulative cell time)", "setting": "[2]; [4]", "result": "only small decreases"}, {"measurement": "harvest antibody concentration", "setting": "[2]; [4]", "result": "large increase"}, {"measurement": "productivity in fed-batch shake flask culture", "setting": "[2]; 10 mM, added during mid-exponential growth phase, compared with potassium acetate at 10 mM or 15 mM", "result": "performed even better than potassium acetate"}, {"measurement": "effect on growth", "setting": "[2]; Experiment 1, acetate supplementation", "result": "not to suppress growth"}, {"measurement": "Increases in protein yield", "setting": "[2]; acetate-supplemented culture compared to control, Experiment 1", "result": "up to 98%"}, {"measurement": "growth suppression in terms of maximum cell density", "setting": "[2]; fed-batch bioreactor, 10 mM included in production medium", "result": "No significant growth suppression"}, {"measurement": "single cell productivity (qp)", "setting": "[2]; [5]", "result": "increased"}, {"measurement": "protein yield", "setting": "[2]; grown with 10 mM acetate (control 470 mg/L)", "result": 768, "unit": "mg/L"}, {"measurement": "optimal concentration with regard to antibody yield and process robustness", "setting": "[2]; proprietary high-density culture medium, Experiment 2", "result": 7.5, "unit": "mM"}, {"measurement": "productivity compared to non-treated control", "setting": "[3]; [6]", "result": "enhanced productivity"}, {"measurement": "tolerance by the cells", "setting": "[3]; [6]", "result": "tolerates acetate surprisingly easily in the mM range"}, {"measurement": "protein yield enhancing effect in comparison to the butyrate control", "setting": "CHO cell culture", "result": "literally no benefit over the control"}, {"measurement": "expression-enhancing effect on tPA production", "setting": "[1]", "result": "did not differ significantly from the control"}]}
{"compound": "CC(=O)[O-].[K+]", "note": "[potassium acetate]", "values": [{"measurement": "single cell productivity (qp)", "setting": "[2]; [5]", "result": "increased"}]}
{"compound": "CCCCC(=O)O", "note": "[valerate]", "values": [{"measurement": "expression-enhancing effect on tPA production", "setting": "[1]", "result": "found to have such effect"}]}
{"compound": "lipopolysaccharide [LPS, reference compound]", "values": [{"measurement": "protein yield enhancing effect in comparison to the butyrate control", "setting": "CHO cell culture", "result": "about 4 times"}]}
{"compound": "[Cl-].[Li+]", "note": "[LiCl, reference compound]", "values": [{"measurement": "modification of the effect of acetate addition", "setting": "[2]; feed supplemented to final approx. 1-10 mM, data not shown", "result": "did not prove to modify the effect of acetate addition in any way"}]}
